Here are results for seven compounds from patent US12384801B2, “Benzothiophene, thienopyridine and thienopyrimidine derivatives for the modulation of sting” (CTXT PTY LTD, priority 2019, dated 2025).

In assay [1] the target is T1, human STING (HAQ) (Homo sapiens (Human), UniProt Q86WV6, G230A/H232R/R293Q). The assay can be described thus: Differential scanning fluorimetry (DSF), huSTING (HAQ). The format is binding. Conditions: compound 100 μM, 2 μM protein, Tm with ligand minus Tm of protein alone (1% DMSO). As to the method: (§1) Data were analyzed using “Meltdown analysis” protocol described by Rosa (2015).
For orientation: Differential scanning fluorimetry follows unfolding on heating by fluorescence.

For assay [2], the target named is T2, human STING (WT) (Homo sapiens (Human), UniProt Q86WV6, H232R). The assay can be described thus: Differential scanning fluorimetry (DSF), huSTING (WT). The class given is binding. Conditions: compound 100 μM, 2 μM protein, Tm with ligand minus Tm of protein alone (1% DMSO). As to the method:
as §1

The target of assay [3] is human HAQ isoform of STING (Homo sapiens (Human), UniProt Q86WV6, G230A/H232R/R293Q/R71H). The assay can be described thus: THP-1 STING Lucia ISG reporter cell line assay. The settings on record: 24 h incubation, luminescence, normalized to ML RR-S2 CDA 40 μM; read-out: EC50 THP-I STING Lucia ISG cells. The format is cell-based. As to the method: (§2) THP-1 STING Lucia ISG cells (InvivoGen #thpl-isg) were cultured in RPMI-1640 containing 2 mM L-glutamine, 25 mM HEPES, 100 μg/mL Normocin (InvivoGen) and 10% heat-inactivated FBS. Cells were seeded at a density of 7×10^5 cells/mL, maintained at 37° C./5% CO2, and passaged every 3-4 days. Selection pressure was maintained by the addition of 100 μg/mL Zeocin every second passage.
(§3) Assay conditions: cells were harvested and resuspended at a concentration of 5×10^5 cells/mL in fresh growth media. Of this cell preparation 20 μL per well was dispensed into 384 well cell culture plates (Greiner, #781098X) and incubated at 37° C./5% CO2 for 2 hours.
(§4) Concentration Response Curves (commonly 11 doses) were prepared by 2.5 fold serial dilution starting from 10 mM compound stock solution in DMSO. Compound dilutions were transferred into the cell culture plates using a pintool (0.1 μL transfer), control wells were matched for DMSO. Positive control wells received ML RR-S2 CDA (Med Chem Express HY12885B) in 5 μL of media to a final concentration of 40 μM. All other wells received additional 5 μL of media only to equalize volume. The plates were incubated for 24 h at 37° C./5% CO2.
(§5) For the detection step, QUANTI-Luc (InvivoGen #rep-qlc1) was prepared according to manufacturer's instruction and 10 μL were added per well to the culture plates. Plates were shaken for ten seconds on an orbital shaker and left in the dark at room temperature for two minutes, before luminescence was read on a Perkin Elmer Envision plate reader.
(§6) Data analysis: Luminescence raw data was normalized % activity relative to the signal of the positive control wells and negative control wells which were not treated with compound. The following formula was used to calculate normalized % activity from raw signals: % activity=(sample−negative)/(positive−negative)
(§7) The THP-1 STING Lucia ISG cell EC50 provides an assessment of activity at the human HAQ isoform of STING. For assessing compound activity against the WT human STING isoform, an equivalent method was conducted where the cells used were THP-1-Dual KI-hSTING-R232 (InvivoGen #thpd-r232).

The target in the next assay is WT human STING isoform (Homo sapiens (Human), UniProt Q86WV6, H232R). The assay can be described thus: THP-1-Dual KI-hSTING-R232 reporter cell line assay. The format is cell-based. Conditions: 24 h incubation, luminescence, normalized to ML RR-S2 CDA 40 μM; read-out: EC50 THP-1 Dual KI-hSTING-R232 cells. As to the method:
as §2, §3, §4, §5, §6, §7

The target of assay [4] is T1, human STING (HAQ). The assay can be described thus: Surface Plasmon Resonance (SPR), STING (HAQ). Conditions: read-out: SPR (HAQ) KD; biotinylated STING on streptavidin chip, 8° C.
Assay [5] deals with T2, human STING (WT). The assay can be described thus: Surface Plasmon Resonance (SPR), STING (WT). The settings on record: read-out: SPR (WT) KD; biotinylated STING on streptavidin chip, 8° C.

Chain of human HAQ isoform of STING (Q86WV6 whole entry R71H/G230A/H232R/R293Q, canonical isoform): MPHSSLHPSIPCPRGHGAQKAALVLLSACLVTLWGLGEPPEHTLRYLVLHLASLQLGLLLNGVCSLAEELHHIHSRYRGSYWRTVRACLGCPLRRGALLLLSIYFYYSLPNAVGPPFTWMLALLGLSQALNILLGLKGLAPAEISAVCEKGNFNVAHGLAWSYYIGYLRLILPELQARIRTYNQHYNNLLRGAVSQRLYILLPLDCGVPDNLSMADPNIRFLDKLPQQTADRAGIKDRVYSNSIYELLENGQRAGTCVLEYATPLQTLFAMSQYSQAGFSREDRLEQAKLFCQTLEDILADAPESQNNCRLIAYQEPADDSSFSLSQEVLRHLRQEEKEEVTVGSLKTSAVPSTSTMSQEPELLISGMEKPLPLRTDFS
Chain of WT human STING isoform (Q86WV6 whole entry H232R, canonical isoform): as the sequence (Q86WV6 whole entry R71H/G230A/H232R/R293Q, canonical isoform) above, with H71R, A230G, Q293R counted along it
T2 sequence (Q86WV6 149-345 H232R): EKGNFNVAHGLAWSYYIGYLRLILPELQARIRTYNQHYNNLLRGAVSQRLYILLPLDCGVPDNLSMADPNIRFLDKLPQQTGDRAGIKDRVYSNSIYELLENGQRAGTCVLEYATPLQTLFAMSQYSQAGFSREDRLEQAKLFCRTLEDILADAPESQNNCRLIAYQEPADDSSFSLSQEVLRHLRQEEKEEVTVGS
T1 sequence (Q86WV6 149-345 G230A/H232R/R293Q): as the sequence (Q86WV6 149-345 H232R) above, with G82A, R145Q counted along it

`NC(=O)c1ccc2c(c1)nc(-c1c(C(=O)O)sc3c(F)ccc(Cl)c13)n2CCn1c(-c2c(C(=O)O)sc3c(F)ccc(Cl)c23)nc2cc(C(N)=O)ccc21` (single isomer, unassigned) [Example 2.2, 3,3′-(Ethane-1,2-diylbis(5-carbamoyl-1H-benzo[d]imidazole-1,2-diyl))bis(4-chloro-7-fluorobenzo[b]thiophene-2-carboxylic acid)]: the “DSF huSTING (HAQ) ΔTm” value on human STING (HAQ) [1] came to 22.2 °C. The “DSF huSTING (WT) ΔTm” value at human STING (WT) [2] turned out to be 8.85 °C. Moreover, the concentration for a half-maximal effect (EC50) turned out to be 8.32 µM in assay [3] and 4.3 µM at WT human STING isoform. Besides, at human STING (HAQ) [4], the Kd stood at 0.124 µM.

In the case of `NC(=O)c1ccc2c(c1)nc(-c1c(C(=O)O)sc3cccc(Br)c13)n2CCn1c(-c2c(C(=O)O)sc3cccc(Br)c23)nc2cc(C(N)=O)ccc21` (single isomer, unassigned) [Example 11.2, 3,3′-(Ethane-1,2-diylbis(5-carbamoyl-1H-benzo[d]imidazole-1,2-diyl))bis(4-bromobenzo[b]thiophene-2-carboxylic acid)], the “DSF huSTING (HAQ) ΔTm” value at human STING (HAQ) [1] is −1.75 °C. Moreover, the “DSF huSTING (WT) ΔTm” value on human STING (WT) [2] was −5.12 °C. Besides, the figures for the EC50 (in assay [3]; at WT human STING isoform) were 5.48 µM and 2.83 µM, respectively. For the same compound, at human STING (WT) [5], the Kd came to 1.43 µM.

As for `COc1ccc(F)c2sc(C(=O)O)c(-c3nc4cc(C(N)=O)ccc4n3CCn3c(-c4c(C(=O)O)sc5c(F)ccc(OC)c45)nc4cc(C(N)=O)ccc43)c12` (single isomer, unassigned) [Example 13.2, 3,3′-(Ethane-1,2-diylbis(5-carbamoyl-1H-benzo[d]imidazole-1,2-diyl))bis(7-fluoro-4-methoxybenzo[b]thiophene-2-carboxylic acid)], at human STING (HAQ) [1], the “DSF huSTING (HAQ) ΔTm” value amounted to 0.89 °C. Also, at human STING (WT) [2], the “DSF huSTING (WT) ΔTm” value is −1.43 °C. Moreover, the EC50 (in assay [3]; on WT human STING isoform) was over 40 µM each time. Further, the Kd at human STING (WT) [5] is 2.37 µM.

In the case of `Cc1cccc2sc(C(=O)O)c(-c3nc4cc(C(N)=O)ccc4n3CCn3c(-c4c(C(=O)O)sc5cccc(C)c45)nc4cc(C(N)=O)ccc43)c12` (single isomer, unassigned) [Example 15.1, 3,3′-(Ethane-1,2-diylbis(5-carbamoyl-1H-benzo[d]imidazole-1,2-diyl))bis(4-methylbenzo[b]thiophene-2-carboxylic acid)], the ΔTm at 100 µM amounted to 24.6 °C on human STING (HAQ) [1] and 10.5 °C on human STING (WT) [2]. Besides, the 50% effective concentration (EC50) in assay [3] is 1.54 µM; at WT human STING isoform, 1.01 µM. Further, the Kd on human STING (WT) [5] was 0.43 µM.

On to `NC(=O)c1ccc2c(c1)nc(-c1c(C(=O)O)sc3ccccc13)n2CCn1c(-c2c(C(=O)O)sc3ccccc23)nc2cc(C(N)=O)ccc21` [Example 9, 3,3′-(Ethane-1,2-diylbis(5-carbamoyl-1H-benzo[d]imidazole-1,2-diyl))bis(benzo[b]thiophene-2-carboxylic acid)], for which the ΔTm at 100 µM is 6.7 °C at human STING (HAQ) [1] and 2.36 °C at human STING (WT) [2]. The EC50 in assay [3] is over 40 µM; on WT human STING isoform, 3.65 µM. Also, the Kd at human STING (HAQ) [4] was determined as 10.1 µM.

As for `N#Cc1cccc2sc(C(=O)O)c(-c3nc4cc(C(N)=O)ccc4n3CCn3c(-c4c(C(=O)O)sc5cccc(C#N)c45)nc4cc(C(N)=O)ccc43)c12` [Example 17, 3,3′-(Ethane-1,2-diylbis(5-carbamoyl-1H-benzo[d]imidazole-1,2-diyl))bis(4-cyanobenzo[b]thiophene-2-carboxylic acid)], the ΔTm at 100 µM at human STING (HAQ) [1] is 3.27 °C; on human STING (WT) [2], -2.58 °C. Besides, the EC50 came to 14.9 µM in assay [3] and 9.4 µM at WT human STING isoform. Moreover, at human STING (HAQ) [4], the Kd came to 38 µM.

Turning to `CCOc1cccc2sc(C(=O)O)c(-c3nc4cc(C(N)=O)ccc4n3CCn3c(-c4c(C(=O)O)sc5cccc(OCC)c45)nc4cc(C(N)=O)ccc43)c12` [Example 24, 3,3′-(Ethane-1,2-diylbis(5-carbamoyl-1H-benzo[d]imidazole-1,2-diyl))bis(4-ethoxybenzo[b]thiophene-2-carboxylic acid)], the ΔTm at 100 µM at human STING (HAQ) [1] was 3.15 °C; at human STING (WT) [2] it was -0.39 °C. Further, the EC50 (in assay [3]; on WT human STING isoform) was over 40 µM throughout. Also, at human STING (HAQ) [4], the Kd was found to be 37 µM.

Broadly, the EC50 is the concentration that produces a half-maximal response. As a reminder, the Kd is the equilibrium constant for the complex coming apart. The ΔTm is the shift of the melting midpoint relative to a reference.
